Assay results published in patent US8258159B2, “Inhibitors of the α2β1/GPIa-IIa integrin” (The Trustees Of The University Of Pennsylvania, priority 2005, dated 2012).
Where two headings read alike, the source gives them in different places.

What was measured:
Assay type in all cases: cell-based
α2β1 = molecular target: T1, α2β1 (Homo sapiens, UniProt P05556+P17301); assay: Cell adhesion assay to assess specificity: α2-transfected K562 cells on collagen I
T1 construct: Marcinkiewicz (Temple University, Philadelphia, Pa.); host or cells: K562
Procedure: (§1) The ligands (3 μg/ml of collagen IV for […] or 3 μg/ml of collagen I for α2β1) for the test designed to assess the specificity of representative embodiments of the instant compounds for the α2β1 integrin were immobilized on 96-well flat microtiter plates (100 μl for each well) in PBS buffer solution overnight at 4° C. In the case of VCAM (3 μg/ml, for α4β1) and fibronectin (10 μg/ml, for α5β1), 20 mM acetic acid was used instead of PBS buffer solution. As those skilled in the art will recognize, VCAM is a known endothelial ligand for α4β1/VLA-4, and fibronectin is a known ligand for […]. In the case of α1β1 and α2β1, blocking was performed with 1% BSA in HBSS buffer solution containing Mg^2+ (but without Ca^2+) for 1 hour. In the case of α4β1 and α5β1, 1% BSA in HyQ HBSS buffer solution containing Ca^2+ and Mg^2+ was used. […] After centrifugation and washing with buffer solution containing 1% BSA, cells were re-suspended in same buffer solution (1×10^6 cells/ml) and incubated in the presence of a different concentration of inhibitors at room temperature for 15 minutes. Cells were added to the wells (100 μl/well) and incubated at 37° C. for 30 minutes. Unbound cells were washed out and bound cells were lysed by the addition of 0.5% Triton X-100.
(§2) The K562 cells expressing α5β1 integrin, Jurkat cells expressing α4β1, and K562 cells transfected with α1 and α2 integrins were provided by Dr. C. Marcinkiewicz (Temple University, Philadelphia, Pa.).
(§3) Plates were read using a Cytofluor 2350 fluorescence plate reader (Millipore, Bedford, Mass.) with a 485 nm (excitation) and 530 nm (emission).

α4β1 = molecular target: T2, α4β1 (Homo sapiens, UniProt P05556+P13612); assay: Cell adhesion assay to assess specificity: Jurkat cells on VCAM
T2 construct: Jurkat cells expressing α4β1; Marcinkiewicz (Temple University, Philadelphia, Pa.); host or cells: Jurkat
Procedure: as §1, §2, §3

α1β1 = molecular target: T3, α1β1 (Homo sapiens, UniProt P05556+P56199); assay: Cell adhesion assay to assess specificity: α1-transfected K562 cells on collagen IV; settings: read-out: % inhibition at 3 μM, α1β1
T3 construct: Marcinkiewicz (Temple University, Philadelphia, Pa.); host or cells: K562
Procedure: as §1, §2, §3

α2β1 integrin = molecular target: T4, α2β1 integrin (Homo sapiens, UniProt P05556+P17301); assay: Platelet adhesion assay (human platelet adhesion to type I collagen)
T4 construct: endogenous in cells; host or cells: gel-filtered human platelets of a single donor
Procedure: The inhibitory strength of the compounds of the present disclosure was analyzed as against platelet adhesion to type I collagen. Ninety-six well flat bottom microtiter plates (Immulon 2, Dynatech Laboratories, Chantilly, Va.) were coated with collagen, purified human fibrinogen, or bovine serum albumin, each dissolved in 50 mM NaHCO3 buffer, pH 8.0, containing 150 mM NaCl as previously described. See Bennett J S, Chan C, Vilaire G, Mousa S A, DeGrado W F. Agonist-Activated αvβ3 on Platelets and Lymphocytes Binds to the Matrix Protein Osteopontin. J Biol Chem. 272, 8137-814) (1997). Unoccupied protein binding sites on the wells were blocked with 5 mg/ml bovine serum albumin dissolved in the same buffer. Human platelets were isolated from blood anticoagulated with 0.1 volume 3.8% sodium citrate by gel-filtration using a 4 mM HEPES buffer, pH 7.4, containing 135 mM NaCl, 2.7 mM KCl, 5.6 mM glucose, 3.3 mM NaH2PO4, 0.35 mg/ml bovine serum albumin and various concentrations of CaCl2 or MgCl2 according to the experiment. One hundred μl aliquots of the gel-filtered platelet suspension containing 1-2×10^8 platelets were added to the protein-coated wells in the absence or presence of a platelet agonist. Following an incubation for 30 min at 37° C. without agitation, the plates were washed 4 times with the Tris-buffered NaCl, containing 2 mM MgCl2, pH 7.4, and the number of adherent platelets measured using the colorimetric assay reported by Bellavite P, Andrioli G, Guzzo P, et al. A colorimetric method for the measurement of platelet adhesion in microtiter plates. Anal Biochem. 216, 444-450 (1994). Briefly, 150 μl of a 0.1 M citrate buffer, pH 5.4, containing 5 mM p-nitrophenyl phosphate and 0.1% Triton X-100 was added to the wells after washing. After an incubation for 60 min at room temperature in the absence of ambient light, color was developed by the addition of 100 μl of 2N NaOH and, using EL800 Universal Microplate Reader (Bio-Tek Instruments, Inc., Winooski, Vt.), read in microtiter plate reader at 405 nm.
The potencies of the compounds of the present disclosure were determined by testing the ability of a range of concentrations of each compound to inhibit human platelet adhesion to soluble collagen under static conditions. Owing to the fact that soluble collagen is a specific ligand for α2β1 integrin, this is an accepted method of assessing α2β1 inhibition on platelets.
IC50 values were determined by using the platelets of a single donor. In cases where multiple assays were performed, the reported results reflect the average IC50 value derived from the separate assays.

[1] = human platelet adhesion to type I (soluble, monomeric) collagen, static conditions, single donor, read-out: IC50
[2] = platelets on collagen I, read-out: IC50 (nM), α2β1, Platelet, Collagen I

T2 sequence (P13612 34-1032): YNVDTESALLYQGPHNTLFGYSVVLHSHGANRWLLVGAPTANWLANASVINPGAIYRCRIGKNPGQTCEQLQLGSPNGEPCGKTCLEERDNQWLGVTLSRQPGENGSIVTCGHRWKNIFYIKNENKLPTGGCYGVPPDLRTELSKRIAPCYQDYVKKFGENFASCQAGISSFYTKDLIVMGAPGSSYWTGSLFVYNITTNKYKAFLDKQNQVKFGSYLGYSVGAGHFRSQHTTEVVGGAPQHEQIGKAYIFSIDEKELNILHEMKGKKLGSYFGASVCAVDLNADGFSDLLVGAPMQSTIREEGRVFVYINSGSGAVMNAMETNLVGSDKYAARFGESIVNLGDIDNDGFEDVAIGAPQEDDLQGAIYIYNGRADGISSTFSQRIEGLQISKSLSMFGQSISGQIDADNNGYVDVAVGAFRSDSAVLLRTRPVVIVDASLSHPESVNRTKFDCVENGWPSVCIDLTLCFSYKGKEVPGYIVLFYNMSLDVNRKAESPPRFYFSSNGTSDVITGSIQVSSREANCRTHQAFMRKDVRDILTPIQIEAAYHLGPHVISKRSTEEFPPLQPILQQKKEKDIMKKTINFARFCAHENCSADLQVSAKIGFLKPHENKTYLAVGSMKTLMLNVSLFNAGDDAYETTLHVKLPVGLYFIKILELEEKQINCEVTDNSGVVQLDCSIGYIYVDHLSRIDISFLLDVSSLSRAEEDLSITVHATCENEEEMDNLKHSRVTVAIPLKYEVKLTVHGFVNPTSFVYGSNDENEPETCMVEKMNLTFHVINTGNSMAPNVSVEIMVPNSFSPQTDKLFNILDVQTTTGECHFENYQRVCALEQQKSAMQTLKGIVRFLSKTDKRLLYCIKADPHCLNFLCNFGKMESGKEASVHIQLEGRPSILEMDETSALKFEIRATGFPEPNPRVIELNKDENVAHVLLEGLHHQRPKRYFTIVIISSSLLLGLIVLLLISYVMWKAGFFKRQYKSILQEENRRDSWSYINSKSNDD
T2 sequence (P05556 21-798): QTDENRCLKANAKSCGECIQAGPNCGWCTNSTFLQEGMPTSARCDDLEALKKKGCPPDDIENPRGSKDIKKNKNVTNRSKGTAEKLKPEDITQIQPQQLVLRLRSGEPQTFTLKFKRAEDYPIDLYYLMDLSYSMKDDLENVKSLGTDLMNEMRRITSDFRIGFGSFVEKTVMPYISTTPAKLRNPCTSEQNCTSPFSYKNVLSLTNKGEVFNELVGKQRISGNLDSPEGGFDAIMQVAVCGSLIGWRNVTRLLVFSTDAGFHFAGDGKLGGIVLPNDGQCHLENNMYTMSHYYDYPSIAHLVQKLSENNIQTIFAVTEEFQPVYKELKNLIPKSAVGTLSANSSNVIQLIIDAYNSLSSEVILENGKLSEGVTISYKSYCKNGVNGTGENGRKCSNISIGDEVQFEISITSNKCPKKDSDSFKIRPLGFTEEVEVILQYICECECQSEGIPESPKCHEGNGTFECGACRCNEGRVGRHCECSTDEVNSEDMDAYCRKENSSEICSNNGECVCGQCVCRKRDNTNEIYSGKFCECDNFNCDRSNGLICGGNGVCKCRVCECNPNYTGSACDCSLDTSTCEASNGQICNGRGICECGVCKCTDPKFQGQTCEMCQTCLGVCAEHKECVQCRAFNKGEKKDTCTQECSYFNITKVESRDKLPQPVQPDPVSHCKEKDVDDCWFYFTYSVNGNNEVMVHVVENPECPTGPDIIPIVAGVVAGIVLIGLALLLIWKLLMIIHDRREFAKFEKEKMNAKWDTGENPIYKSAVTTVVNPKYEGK
T3 sequence (P56199 29-1179): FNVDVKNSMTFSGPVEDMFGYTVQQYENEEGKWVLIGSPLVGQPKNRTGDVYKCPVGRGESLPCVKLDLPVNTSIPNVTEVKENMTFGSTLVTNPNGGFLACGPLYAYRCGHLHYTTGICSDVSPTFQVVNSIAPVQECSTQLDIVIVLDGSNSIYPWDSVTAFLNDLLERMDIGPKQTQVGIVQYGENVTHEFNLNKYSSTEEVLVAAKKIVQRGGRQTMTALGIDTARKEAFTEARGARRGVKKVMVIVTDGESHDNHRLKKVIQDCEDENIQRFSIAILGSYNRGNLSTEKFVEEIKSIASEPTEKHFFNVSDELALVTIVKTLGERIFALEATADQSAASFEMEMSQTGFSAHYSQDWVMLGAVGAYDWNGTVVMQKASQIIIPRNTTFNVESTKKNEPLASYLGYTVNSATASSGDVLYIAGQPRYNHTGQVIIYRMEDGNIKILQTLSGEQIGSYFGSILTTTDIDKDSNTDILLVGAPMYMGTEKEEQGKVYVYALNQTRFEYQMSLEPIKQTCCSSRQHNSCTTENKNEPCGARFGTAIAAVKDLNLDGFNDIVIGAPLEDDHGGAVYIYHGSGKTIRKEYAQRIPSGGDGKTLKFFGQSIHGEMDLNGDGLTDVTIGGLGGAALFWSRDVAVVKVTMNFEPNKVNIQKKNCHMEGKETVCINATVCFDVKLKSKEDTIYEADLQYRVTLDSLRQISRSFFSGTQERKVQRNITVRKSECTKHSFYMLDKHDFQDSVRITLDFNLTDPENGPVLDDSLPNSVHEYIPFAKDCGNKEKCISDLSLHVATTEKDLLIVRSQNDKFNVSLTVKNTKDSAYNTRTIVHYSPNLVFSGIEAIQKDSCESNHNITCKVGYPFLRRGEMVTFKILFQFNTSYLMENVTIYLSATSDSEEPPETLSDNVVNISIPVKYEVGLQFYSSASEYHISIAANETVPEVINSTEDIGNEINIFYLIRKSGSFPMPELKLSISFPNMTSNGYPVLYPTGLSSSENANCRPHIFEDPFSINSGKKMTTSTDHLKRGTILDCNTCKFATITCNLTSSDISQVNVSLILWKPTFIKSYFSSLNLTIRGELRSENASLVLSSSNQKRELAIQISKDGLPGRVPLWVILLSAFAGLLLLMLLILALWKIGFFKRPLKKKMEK
T3 sequence (P05556 21-798): as the sequence (P05556 21-798) above
T1 sequence (P17301 30-1181): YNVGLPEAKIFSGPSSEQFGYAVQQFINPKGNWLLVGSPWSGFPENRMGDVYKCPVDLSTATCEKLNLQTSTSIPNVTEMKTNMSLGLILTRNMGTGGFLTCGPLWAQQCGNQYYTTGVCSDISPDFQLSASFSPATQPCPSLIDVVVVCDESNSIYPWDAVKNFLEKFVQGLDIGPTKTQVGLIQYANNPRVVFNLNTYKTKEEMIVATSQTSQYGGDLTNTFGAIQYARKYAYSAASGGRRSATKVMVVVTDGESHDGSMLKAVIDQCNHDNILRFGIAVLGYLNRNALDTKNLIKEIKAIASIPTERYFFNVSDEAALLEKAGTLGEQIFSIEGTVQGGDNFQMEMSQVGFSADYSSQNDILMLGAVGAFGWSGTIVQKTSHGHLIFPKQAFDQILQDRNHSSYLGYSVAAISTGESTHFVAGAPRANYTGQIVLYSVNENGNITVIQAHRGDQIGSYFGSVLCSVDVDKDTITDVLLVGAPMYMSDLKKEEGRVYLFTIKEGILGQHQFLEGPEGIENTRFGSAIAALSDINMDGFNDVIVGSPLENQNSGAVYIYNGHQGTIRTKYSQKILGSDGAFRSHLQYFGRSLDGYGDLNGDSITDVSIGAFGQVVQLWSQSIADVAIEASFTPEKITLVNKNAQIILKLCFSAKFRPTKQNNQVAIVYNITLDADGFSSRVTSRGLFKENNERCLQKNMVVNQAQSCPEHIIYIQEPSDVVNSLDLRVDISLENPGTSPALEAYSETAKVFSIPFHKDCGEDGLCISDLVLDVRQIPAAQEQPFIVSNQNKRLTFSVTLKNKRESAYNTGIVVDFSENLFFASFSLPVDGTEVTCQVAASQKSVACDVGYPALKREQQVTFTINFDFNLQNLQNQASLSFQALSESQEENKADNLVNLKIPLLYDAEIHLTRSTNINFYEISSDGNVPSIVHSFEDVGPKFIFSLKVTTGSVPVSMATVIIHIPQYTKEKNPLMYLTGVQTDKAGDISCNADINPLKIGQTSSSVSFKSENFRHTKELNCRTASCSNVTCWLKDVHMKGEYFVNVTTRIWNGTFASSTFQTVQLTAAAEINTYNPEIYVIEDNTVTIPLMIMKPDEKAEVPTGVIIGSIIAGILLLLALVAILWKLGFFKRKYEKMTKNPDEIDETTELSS
T1 sequence (P05556 21-798): as the sequence (P05556 21-798) above
T4 sequence (P17301 30-1181): as the sequence (P17301 30-1181) above
T4 sequence (P05556 21-798): as the sequence (P05556 21-798) above

SMILES | IC50 (α2β1) | IC50 (α4β1) | inhibition at 3 µM (α1β1) | IC50 (α2β1 integrin; [1]) | IC50 (α2β1 integrin; [2])
Nc1ccc(CNC(=O)NC[C@H](NC(=O)[C@@H]2CCCN2S(=O)(=O)c2ccccc2)C(=O)O)cc1 [Compound 30, 3-[3-(4-Amino-benzyl)-ureido]-2-[(1-benzenesulfonyl-pyrrolidine-2-carbonyl)-amino]-propionic acid] | 102 nM | 1970 nM | 22% | 23 nM | 23 nM
Cc1cc(C)cc(S(=O)(=O)N2CCC[C@H]2C(=O)N[C@@H](CNC(=O)NCc2ccccc2)C(=O)O)c1 [Compound 31, 3-(3-Benzyl-ureido)-2-{[1-(3,5-dimethyl-benzenesulfonyl)-pyrrolidine-2-carbonyl]-amino}-propionic acid] | 89 nM | 740 nM | 26% | 29 nM | 29 nM
O=C(NCc1ccccc1)NC[C@H](NC(=O)[C@@H]1CCCN1S(=O)(=O)c1ccc2ccccc2c1)C(=O)O [Compound 29] | 177 nM | 4330 nM | 30% | 900 nM | 
